Experiment: method code SF-AS, from DOI: 10.1002/zfch.19810211114

Row | Compound | logP
1 | NNC(N)=O | -2.75
2 | CCNC(=O)NN | -1.62
3 | CCN(CC)C(=O)NN | -0.62
4 | CCCCNC(=O)NN | -0.6
5 | CC(C)(C)NC(=O)NN | -0.81
6 | C=CCNC(=O)NN | -1.55
7 | CCCCCCNC(=O)NN | 0.46
8 | CCCCCNC(=O)NN | -0.04
9 | NNC(=O)NCc1ccccc1 | -0.22
10 | CC(C)NC(=O)NN | -1.3
11 | CCCNC(=O)NN | -1.1
12 | NNC(=O)NC1CCCCC1 | 0.15
13 | CNC(=O)NN | -2.2
14 | CN(C)C(=O)NN | -1.57
15 | CC(C)CNC(=O)NN | -0.84

Reference: the SangsterLogP compilation
